Several values for one entry are separate records, joined by “and”; a condition that tells them apart may be missing. Identical values can stand only once.
Experiments:
[1] = system: release of neurotransmitter amines; conditions: U.S. Pat. No. 5,606,020 to Watanabe et al.; cited from earlier work
PKU patients = experiment: Single oral BH4 dose in PKU patients, blood Phe and tyrosine response (Example 1); type: in vivo, human; conditions: single oral 10 mg/kg, responder = Phe reduction 25% or greater with tyrosine increase 25% or greater within 24 hours
Description: PKU patients were administered a single oral dose of 10 mg/kg BH4, and blood levels of both Phe and tyrosine were monitored at 0, 4, 8, 24 hours post-dose. In this regard, it should be noted that this is half the dose administered by previous investigators.

normal mice = experiment: Levels of metabolites in mouse brain following BH4 and 6-methyl BH4 treatment, normal mice; type: in vivo; conditions: Non PKU mice, single dose IM 100 mg/kg, after 1 hr; one line per animal
Description: (§1) To comparatively investigate the CNS effects of BH4 and methyl BH4, we used mice both with and without PKU. A single dose of either compound was given IM, 100 mg/kg to PKU afflicted and normal mice, with control groups receiving buffer only. After 1 hr, a time sufficient to observe changes in brain chemistry, the mice were sacrificed, and brains were sent out for analysis of 3-O-methyldopa (“3OMD”), 5-hydroxytryptamine ([…]) (serotonin), dihydroxybenzoic acid (“DHBA”), dopamine (“DA”), dihydroxyphenylacetic acid (“DOPAC”), hydroxyindoleacetic acid (“HIAA”), homovanilic acid (“HVA”), and methoxyhydroxyphenylglycol (“MPHG”) levels.

PKU afflicted mice = experiment: Levels of metabolites in mouse brain following BH4 and 6-methyl BH4 treatment, PKU mice; type: in vivo; conditions: for 3OMD level in brain / 5HT level in brain / DA level in brain / DOPAC level in brain / HIAA level in brain / HVA level in brain / MPHG level in brain: PKU mice, single dose IM 100 mg/kg, after 1 hr, one line per animal
Description: as §1

patients with PKU = experiment: Oral BH4 loading in patients with PKU, blood Phe and tyrosine by tandem MS/MS (Example 2); type: in vivo, human
Description: This study included 15 males and 10 females with PKU. There were 13 subjects with “classical” PKU (based on blood Phe levels greater than 20 mg/dL) and 12 with “atypical” PKU (blood Phe 6.0-20 mg/dL). The mean age of the subjects was 16.6 years with a range from 6 months to 43 years. All subjects were on a restricted Phe diet, except four subjects with atypical PKU, who had discontinued diet treatment. […] Tetrahydrobiopterin (BH4) was obtained from Schircks Laboratories, Jena, Switzerland. The subjects were given BH4 10 mg/kg or 20 mg/kg by mouth after baseline blood Phe and tyrosine were drawn. Blood Phe and tyrosine were taken at 4, 8, and 24 hours and determined using tandem MS/MS (Neogen).

Structure (SMILES) | 3OMD level in brain (normal mice) | 5HT level in brain (normal mice) | DA level in brain (normal mice) | DOPAC level in brain (normal mice) | HIAA level in brain (normal mice) | HVA level in brain (normal mice) | MPHG level in brain (normal mice) | 3OMD level in brain (PKU afflicted mice) | 5HT level in brain (PKU afflicted mice) | DA level in brain (PKU afflicted mice) | DOPAC level in brain (PKU afflicted mice) | HIAA level in brain (PKU afflicted mice) | HVA level in brain (PKU afflicted mice) | MPHG level in brain (PKU afflicted mice) | also measured
C[C@H](O)[C@H](O)[C@H]1CNc2nc(N)[nH]c(=O)c2N1 [6R-BH4] |  |  |  |  |  |  |  |  |  |  |  |  |  |  | Release and liberation of neurotransmitter amines such as dopamine, norepinephrine and serotonin [1]: enhances the release and liberation of neurotransmitter amines
C[C@H](O)[C@H](O)[C@H]1CNc2nc(N)[nH]c(=O)c2N1 [BH4, Tetrahydrobiopterin] | 0.58 nmol/g wet weight and 0.27 nmol/g wet weight and 0.60 nmol/g wet weight and 0.41 nmol/g wet weight and 115.6 nmol/l and 53.3 nmol/l and 119.7 nmol/l and 81.1 nmol/l | 1.27 nmol/g wet weight and 1.21 nmol/g wet weight and 1.16 nmol/g wet weight and 1.53 nmol/g wet weight and 253.5 nmol/l and 242.3 nmol/l and 231.2 nmol/l and 305.2 nmol/l | 9.06 nmol/g wet weight and 9.56 nmol/g wet weight and 9.63 nmol/g wet weight and 9.93 nmol/g wet weight and 1811.4 nmol/l and 1912.5 nmol/l and 1926.7 nmol/l and 1985.9 nmol/l | 0.68 nmol/g wet weight and 0.62 nmol/g wet weight and 0.72 nmol/g wet weight and 0.79 nmol/g wet weight and 136.6 nmol/l and 124.4 nmol/l and 143.4 nmol/l and 158.6 nmol/l | 3.49 nmol/g wet weight and 3.23 nmol/g wet weight and 3.19 nmol/g wet weight and 3.58 nmol/g wet weight and 697.5 nmol/l and 646.1 nmol/l and 638.7 nmol/l and 716.9 nmol/l | 1.08 nmol/g wet weight and 1.09 nmol/g wet weight and 1.22 nmol/g wet weight and 1.18 nmol/g wet weight and 216.9 nmol/l and 217.7 nmol/l and 243.0 nmol/l and 236.6 nmol/l | 0.36 nmol/g wet weight and 0.30 nmol/g wet weight and 0.40 nmol/g wet weight and 0.33 nmol/g wet weight and 72.5 nmol/l and 60.6 nmol/l and 80.2 nmol/l and 66.7 nmol/l | 0.48 nmol/g wet weight and 0.16 nmol/g wet weight and 0.09 nmol/g wet weight and 0.55 nmol/g wet weight and 95.1 nmol/l and 32.9 nmol/l and 18.2 nmol/l and 110.4 nmol/l | 0.16 nmol/g wet weight and 0.23 nmol/g wet weight and 0.15 nmol/g wet weight and 0.24 nmol/g wet weight and 31.5 nmol/l and 45.7 nmol/l and 30.4 nmol/l and 48.3 nmol/l | 6.28 nmol/g wet weight and 9.48 nmol/g wet weight and 6.91 nmol/g wet weight and 8.08 nmol/g wet weight and 1256.0 nmol/l and 1896.3 nmol/l and 1382.2 nmol/l and 1616.2 nmol/l | 0.40 nmol/g wet weight and 0.53 nmol/g wet weight and 0.51 nmol/g wet weight and 0.37 nmol/g wet weight and 80.9 nmol/l and 105.7 nmol/l and 101.0 nmol/l and 73.1 nmol/l | 0.91 nmol/g wet weight and 1.68 nmol/g wet weight and 0.94 nmol/g wet weight and 1.45 nmol/g wet weight and 181.1 nmol/l and 336.9 nmol/l and 188.0 nmol/l and 290.6 nmol/l | 0.80 nmol/g wet weight and 1.04 nmol/g wet weight and 0.77 nmol/g wet weight and 0.94 nmol/g wet weight and 160.6 nmol/l and 207.0 nmol/l and 153.6 nmol/l and 188.7 nmol/l | 0.18 nmol/g wet weight and 0.21 nmol/g wet weight and 0.26 nmol/g wet weight and 0.16 nmol/g wet weight and 35.2 nmol/l and 42.9 nmol/l and 51.6 nmol/l and 31.6 nmol/l | Number of Responders (PKU patients; Atypical PKU, blood Phe 6-20 mg/dl, 9 subjects): 9; Number of Responders (PKU patients; Classic PKU, blood Phe 20-50 mg/dl, 6 subjects): 0; Number of classical PKU subjects who responded to BH4 (patients with PKU; 13 subjects with classical PKU (blood Phe greater than 20 mg/dL)): 6; Drop in blood Phe level (patients with PKU; non-responding patients with R261Q allele challenged again with 20 mg/kg BH4): 10%; Mean decline in blood Phe (patients with PKU; responders, after BH4 loading): 53.7%; Mean blood Phe level after BH4 loading (patients with PKU; responders, prior to BH4 12.2 mg/dL): 6.6 mg/dL; Mean blood Phe level after BH4 loading (patients with PKU; responders, prior to BH4 732 mmol/L, unit of the source corrected): 396 µM
CC1CNc2nc(N)[nH]c(=O)c2N1 (centres unmarked) [6-Me BH4, 6-methyl-tetrahydropterin] | 0.57 nmol/g wet weight and 0.29 nmol/g wet weight and 0.36 nmol/g wet weight and 0.44 nmol/g wet weight and 114.5 nmol/l and 87.7 nmol/l and 58.2 nmol/l and 71.7 nmol/l | 1.07 nmol/g wet weight and 1.31 nmol/g wet weight and 1.21 nmol/g wet weight and 1.11 nmol/g wet weight and 214.3 nmol/l and 222.6 nmol/l and 261.1 nmol/l and 242.3 nmol/l | 10.86 nmol/g wet weight and 10.26 nmol/g wet weight and 11.50 nmol/g wet weight and 10.56 nmol/g wet weight and 2172.4 nmol/l and 2112.1 nmol/l and 2051.2 nmol/l and 2300.5 nmol/l | 0.61 nmol/g wet weight and 0.65 nmol/g wet weight and 0.66 nmol/g wet weight and 0.59 nmol/g wet weight and 121.6 nmol/l and 118.9 nmol/l and 129.6 nmol/l and 132.5 nmol/l | 3.09 nmol/g wet weight and 3.56 nmol/g wet weight and 3.65 nmol/g wet weight and 3.22 nmol/g wet weight and 617.3 nmol/l and 643.9 nmol/l and 712.0 nmol/l and 730.5 nmol/l | 1.26 nmol/g wet weight and 0.99 nmol/g wet weight and 1.20 nmol/g wet weight and 1.28 nmol/g wet weight and 252.9 nmol/l and 256.9 nmol/l and 197.1 nmol/l and 240.6 nmol/l | 0.31 nmol/g wet weight and 0.26 nmol/g wet weight and 0.30 nmol/g wet weight and 0.29 nmol/g wet weight and 62.9 nmol/l and 58.9 nmol/l and 51.2 nmol/l and 59.7 nmol/l | 0.39 nmol/g wet weight and 0.26 nmol/g wet weight and 0.17 nmol/g wet weight and 0.47 nmol/g wet weight and 77.7 nmol/l and 51.9 nmol/l and 34.9 nmol/l and 94.1 nmol/l | 0.20 nmol/g wet weight and 0.15 nmol/g wet weight and 0.28 nmol/g wet weight and 0.24 nmol/g wet weight and 40.0 nmol/l and 30.0 nmol/l and 56.7 nmol/l and 47.6 nmol/l | 10.16 nmol/g wet weight and 7.14 nmol/g wet weight and 6.46 nmol/g wet weight and 7.27 nmol/g wet weight and 2031.2 nmol/l and 1427.4 nmol/l and 1292.6 nmol/l and 1454.4 nmol/l | 0.51 nmol/g wet weight and 0.40 nmol/g wet weight and 0.52 nmol/g wet weight and 0.48 nmol/g wet weight and 101.7 nmol/l and 80.6 nmol/l and 104.5 nmol/l and 95.6 nmol/l | 1.70 nmol/g wet weight and 1.03 nmol/g wet weight and 1.64 nmol/g wet weight and 1.41 nmol/g wet weight and 340.4 nmol/l and 205.6 nmol/l and 328.1 nmol/l and 282.2 nmol/l | 1.18 nmol/g wet weight and 0.94 nmol/g wet weight and 0.92 nmol/g wet weight and 0.91 nmol/g wet weight and 236.9 nmol/l and 187.2 nmol/l and 184.5 nmol/l and 182.1 nmol/l | 0.36 nmol/g wet weight and 0.26 nmol/g wet weight and 0.32 nmol/g wet weight and 0.18 nmol/g wet weight and 71.2 nmol/l and 52.1 nmol/l and 63.2 nmol/l and 36.3 nmol/l | Overall effect on CNS chemistry, compared with BH4 (PKU afflicted mice; PKU and normal mice, IM 100 mg/kg, 1 hr, summary of Tables 5 and 6): greater effect on CNS chemistry; Ability to traverse the blood brain barrier, as compared to BH4 (PKU afflicted mice; inferred from brain metabolite levels, PKU and normal mice): better ability to traverse the blood brain barrier

— patent US8124653B2, “Methods and compositions for the treatment of attention deficit hyperactivity disorder and hyperphenylalanemia” (The Board of Regents of The University of Texas System, priority 2004, dated 2012)
